# Patent publication US7566712B2, “Biaryl piperazinyl-pyridine analogues” (Neurogen Corporation, priority 2003, dated 2009)
# Molecular target: T1, human capsaicin receptor (Homo sapiens, UniProt Q8NER1)
# T1 construct: pBK-CMV expression construct encoding the full length human capsaicin receptor; expressed in transfected cells
# Experiment: Calcium mobilization assay, determination of antagonist activity (Example 6)
# Assay type: cell-based
# Details: Table II; IC50 determined as described in Example 6
# Procedure, shortened: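 HEK293 clonal lines stably expressing full-length human capsaicin receptor, loaded with Fluo-3 AM in KRH buffer pH 7.4, 1–2 h at 37 °C. Compounds (1–5 μM final) preincubated 0.5–6 h at room temperature, then capsaicin at its EC50 added. FLIPR/Fluoroskan calcium signal; IC50 as 50% decrease of capsaicin response.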
# T1 sequence (Q8NER1 whole entry): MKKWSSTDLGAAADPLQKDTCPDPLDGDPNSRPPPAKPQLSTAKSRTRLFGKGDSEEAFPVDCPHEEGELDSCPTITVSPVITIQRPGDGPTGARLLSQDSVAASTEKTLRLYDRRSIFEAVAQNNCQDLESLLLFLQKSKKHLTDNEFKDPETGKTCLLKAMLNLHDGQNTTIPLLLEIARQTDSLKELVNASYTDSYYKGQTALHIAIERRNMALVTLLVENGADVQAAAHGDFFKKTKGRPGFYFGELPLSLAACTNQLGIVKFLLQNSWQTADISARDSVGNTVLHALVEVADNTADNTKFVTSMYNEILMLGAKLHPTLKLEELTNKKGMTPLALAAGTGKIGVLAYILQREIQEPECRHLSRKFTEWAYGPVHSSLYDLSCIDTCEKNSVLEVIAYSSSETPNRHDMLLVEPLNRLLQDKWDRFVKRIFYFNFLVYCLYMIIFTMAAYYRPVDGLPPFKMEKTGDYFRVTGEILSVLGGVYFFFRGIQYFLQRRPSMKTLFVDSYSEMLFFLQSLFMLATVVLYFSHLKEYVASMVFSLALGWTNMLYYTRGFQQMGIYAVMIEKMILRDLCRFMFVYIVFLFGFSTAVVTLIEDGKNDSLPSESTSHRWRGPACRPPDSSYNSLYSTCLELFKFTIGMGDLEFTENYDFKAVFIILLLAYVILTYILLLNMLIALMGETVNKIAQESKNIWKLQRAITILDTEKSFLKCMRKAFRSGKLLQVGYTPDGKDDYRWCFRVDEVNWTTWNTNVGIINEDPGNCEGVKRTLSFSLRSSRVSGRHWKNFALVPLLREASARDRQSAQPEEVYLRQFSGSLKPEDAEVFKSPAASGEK
row,IC50 [µM],Compound
1,≤ 1,"Cc1ccc(-c2cc(N3CCN(c4ncccc4C(F)(F)F)C[C@H]3C)nc(N3CCOCC3)n2)cc1F [Example 495, 4-(4-(3-fluoro-4-methylphenyl)-6-{(2R)-2-methyl-4-[3-(trifluoromethyl)pyridin-2-yl]piperazin-1-yl}pyrimidin-2-yl)morpholine]"
2,≤ 1,"Cc1ccc(-c2cc(N3CCN(c4ncccc4Cl)C[C@H]3C)nc(N3CCOCC3)n2)cc1F [Example 496, 4-[4-[(2R)-4-(3-chloropyridin-2-yl)-2-methylpiperazin-1-yl]-6-(3-fluoro-4-methylphenyl)pyrimidin-2-yl]morpholine]"
3,≤ 1,"Cc1cc(-c2cc(N3CCN(c4ncccc4C(F)(F)F)C[C@H]3C)nc(N3CCOCC3)n2)ccc1F [Example 497, 4-(4-(4-fluoro-3-methylphenyl)-6-{(2R)-2-methyl-4-[3-(trifluoromethyl)pyridin-2-yl]piperazin-1-yl}pyrimidin-2-yl)morpholine]"
4,≤ 1,"Cc1cc(-c2cc(N3CCN(c4ncccc4Cl)C[C@H]3C)nc(N3CCOCC3)n2)ccc1F [Example 498, 4-[4-[(2R)-4-(3-chloropyridin-2-yl)-2-methylpiperazin-1-yl]-6-(4-fluoro-3-methytphenyl)pyrimidin-2-yl]morpholine]"
5,≤ 1,"CC(C)c1cccc(-c2cc(N3CCN(c4ncccc4C#N)C[C@H]3C)nc(N3CCOCC3)n2)c1 [Example 499, 2-{(3R)-4-[6-(3-isopropylphenyl)-2-morpholin-4-ylpyrimidin-4-yl]-3-methylpiperazin-1-yl}nicotinonitrile]"
6,≤ 1,"Cc1cccnc1N1CCN(c2cc(-c3cccc(C(C)C)c3)nc(N3CCOCC3)n2)[C@H](C)C1 [Example 500, 4-{4-(3-isopropylphenyl)-6-[(2R)-2-methyl-4-(3-methylpyridin-2-yl)piperazin-1-yl]pyrimidin-2-yl}morpholine]"
7,≤ 1,"CC(C)c1cccc(-c2cc(N3CCN(c4ncccc4C(F)(F)F)C[C@H]3C)nc(N3CCOCC3)n2)c1 [Example 501, 4-(4-(3-isopropylphenyl)-6-{(2R)-2-methyl-4-[3-(trifluoromethyl)pyridin-2-yl]piperazin-1-yl}pyrimidin-2-yl)morpholine]"
8,≤ 1,"CC(C)c1cccc(-c2cc(N3CCN(c4ncccc4Cl)C[C@H]3C)nc(N3CCOCC3)n2)c1 [Example 502, 4-[4-[(2R)-4-(3-chloropyridin-2-yl)-2-methylpiperazin-1-yl]-6-(3-isopropylphenyl)pyrimidin-2-yl]morpholine]"
9,≤ 1,"CC(C)c1ccc(-c2cc(N3CCN(c4ncccc4C#N)C[C@H]3C)nc(N3CCOCC3)n2)cc1 [Example 503, 2-{(3R)-4-[6-(4-isopropylphenyl)-2-morpholin-4-ylpyrimidin-4-yl]-3-methylpiperazin-1-yl}nicotinonitrile]"
10,≤ 1,"Cc1cccnc1N1CCN(c2cc(-c3ccc(C(C)C)cc3)nc(N3CCOCC3)n2)[C@H](C)C1 [Example 504, 4-{4-(4-isopropylphenyl)-6-[(2R)-2-methyl-4-(3-methylpyridin-2-yl)piperazin-1-yl]pyrimidin-2-yl}morpholine]"
11,≤ 1,"CC(C)c1ccc(-c2cc(N3CCN(c4ncccc4Cl)C[C@H]3C)nc(N3CCOCC3)n2)cc1 [Example 505, 4-[4-[(2R)-4-(3-chloropyridin-2-yl)-2-methylpiperazin-1-yl]-6-(4-isopropylphenyl)pyrimidin-2-yl]morpholine]"
12,≤ 1,"Cc1ccc(-c2cc(N3CCN(c4ncccc4C#N)C[C@H]3C)nc(N3CCOCC3)n2)cc1C [Example 506, 2-{(3R)-4-[6-(3,4-dimethylphenyl)-2-morpholin-4-ylpyrimidin-4-yl]-3-methylpiperazin-1-yl}nicotinonitrile]"
13,≤ 1,"Cc1ccc(-c2cc(N3CCN(c4ncccc4C)C[C@H]3C)nc(N3CCOCC3)n2)cc1C [Example 507, 4-[4-(3,4-dimethylphenyl)-6-[(2R)-2-methyl-4-(3-methylpyridin-2-yl)piperazin-1-yl]pyrimidin-2-yl}morpholine]"
14,≤ 1,"Cc1ccc(-c2cc(N3CCN(c4ncccc4Cl)C[C@H]3C)nc(N3CCOCC3)n2)cc1C [Example 508, 4-[4-[(2R)-4-(3-chloropyridin-2-yl)-2-methylpiperazin-1-yl]-6-(3,4-dimethylphenyl)pyrimidin-2-yl]morpholine]"
15,≤ 1,"CCc1ccc(-c2cc(N3CCN(c4ncccc4C#N)C[C@H]3C)nc(N3CCOCC3)n2)cc1 [Example 509, 2-{(3R)-4-[6-(4-ethylphenyl)-2-morpholin-4-ylpyrimidin-4-yl]-3-methylpiperazin-1-yl}nicotinonitrile]"
16,≤ 1,"CCc1ccc(-c2cc(N3CCN(c4ncccc4C)C[C@H]3C)nc(N3CCOCC3)n2)cc1 [Example 510, 4-{4-(4-ethylphenyl)-6-[(2R)-2-methyl-4-(3-methylpyridin-2-yl)piperazin-1-yl]pyrimidin-2-yl}morpholine]"
17,≤ 1,"CCc1ccc(-c2cc(N3CCN(c4ncccc4Cl)C[C@H]3C)nc(N3CCOCC3)n2)cc1 [Example 511, 4-[4-[(2R)-4-(3-chloropyridin-2-yl)-2-methylpiperazin-1-yl]-6-(4-ethylphenyl)pyrimidin-2-yl]morpholine]"
18,≤ 1,"CCCc1ccc(-c2cc(N3CCN(c4ncccc4C#N)C[C@H]3C)nc(N3CCOCC3)n2)cc1 [Example 512, 2-{(3R)-3-methyl-4-[2-morpholin-4-yl-6-(4-propylphenyl)pyrimidin-4-yl]piperazin-1-yl}nicotinonitrile]"
19,≤ 1,"CCCc1ccc(-c2cc(N3CCN(c4ncccc4Cl)C[C@H]3C)nc(N3CCOCC3)n2)cc1 [Example 513, 4-[4-[(2R)-4-(3-chloropyridin-2-yl)-2-methylpiperazin-1-yl]-6-(4-propylphenyl)pyrimidin-2-yl]morpholine]"
20,≤ 1,"CCc1cccc(-c2cc(N3CCN(c4ncccc4C#N)C[C@H]3C)nc(N3CCOCC3)n2)c1 [Example 514, 2-{(3R)-4-[6-(3-ethylphenyl)-2-morpholin-4-ylpyrimidin-4-yl]-3-methylpiperazin-1-yl}nicotinonitrile]"
21,≤ 1,"CCc1cccc(-c2cc(N3CCN(c4ncccc4C)C[C@H]3C)nc(N3CCOCC3)n2)c1 [Example 515, 4-{4-(3-ethylphenyl)-6-[(2R)-2-methyl-4-(3-methylpyridin-2-yl)piperazin-1-yl]pyrimidin-2-yl}morpholine]"
22,≤ 1,"CCc1cccc(-c2cc(N3CCN(c4ncccc4C(F)(F)F)C[C@H]3C)nc(N3CCOCC3)n2)c1 [Example 516, 4-(4-(3-ethylphenyl)-6-{(2R)-2-methyl-4-[3-(trifluoromethyl)pyridin-2-yl]piperazin-1-yl}pyrimidin-2-yl)morpholine]"
23,≤ 1,"CCc1cccc(-c2cc(N3CCN(c4ncccc4Cl)C[C@H]3C)nc(N3CCOCC3)n2)c1 [Example 517, 4-[4-[(2R)-4-(3-chloropyridin-2-yl)-2-methylpiperazin-1-yl]-6-(3-ethylphenyl)pyrimidin-2-yl]morpholine]"
24,≤ 1,"C[C@@H]1CN(c2ncccc2C#N)CCN1c1cc(-c2ccc(C(C)(C)C)cc2)nc(N2CCOCC2)n1 [Example 518, 2-{(3R)-4-[6-(4-tert-butylphenyl)-2-morpholin-4-ylpyrimidin-4-yl]-3-methylpiperazin-1-yl}nicotinonitrile]"
